Source: patent EP4806892A1, “CEREBLON E3 UBIQUITIN LIGASE INHIBITOR” (GAN & LEE PHARMACEUTICALS CO., LTD., priority 2023, dated 2025)
pIC50: −log10 of the molar value.

Tests used:
Assay type in all cases: cell-based
[1] = tested on: VCaP cell; assay: VCaP cell proliferation inhibition (WST-8); conditions: Homo sapiens, VCaP cells, 168 hours, read-out: IC50 for inhibiting VCAP cell proliferation
Method: VCaP cells (ATCC, CRL-2876) were cultured in DMEM (Gibco, 11995-065) complete medium containing 10% fetal bovine serum (Hyclone, SH30406.05). On the first day of the experiment, VCaP cells were seeded at a density of 15,000 cells/well in a 96-well plate using DMEM medium containing 10% fetal bovine serum, with 100 µL of cell suspension per well, and cultured overnight in a cell culture incubator at 37°C and 5% CO2. […] The final concentration of the compound was 9 concentration points of 5-fold serial dilution starting from 10 µM. The wells to which 100 µL of DMEM medium containing 10% fetal bovine serum was added were set as blank controls and cultured in a cell culture incubator at 37°C and 5% CO2 for 168 hours. On the ninth day, the 96-well cell culture plate was removed and 1/10 volume of WST-8 (Beytime, C0040) reagent was added to each well. The absorbance at 450 nm was measured using a microplate reader (TECAN, F50).

[2] = tested on: LNCAP cell; assay: LNCaP cell proliferation inhibition (WST-8); conditions: Homo sapiens, LNCaP FGC cells, 96 hours, read-out: IC50 for inhibiting LNCAP cell proliferation
Method: LNCaP FGC cells (ATCC, CLR-1740) were cultured in RPMI 1640 (ATCC, 30-2001) complete medium supplemented with 10% fetal bovine serum (Hyclone, SH30406.05). On the first day of the experiment, LNCaP FGC cells were seeded at a density of 5,000 cells/well in 96-well plates using RPMI 1640 medium supplemented with 10% fetal bovine serum, with 100 µL of cell suspension per well. The cells were cultured overnight in a 37°C, 5% CO2 cell incubator. On the second day, 100 µL of different concentrations of the compound to be tested and the positive control sample ARV-766 (source: Energy Chemical) prepared in culture medium were added to each well. The final concentration of the compound was 9 concentration points of 5-fold serial dilution starting from 10 µM. The wells to which 100 µL of RPMI 1640 culture medium containing 10% fetal bovine serum was added were set as controls. The cells were cultured in a cell culture incubator at 37°C and 5% CO2 for 96 hours. On the sixth day, the 96-well cell culture plate was removed, and 1/10 volume of WST-8 (Beytime, C0040) reagent was added to each well. The absorbance at 450 nm was detected using a microplate reader (TECAN, F50).

[3] = molecular target: T1, AR protein (Homo sapiens, UniProt P10275, T878A); assay: AR protein degradation in LNCaP cells (Western blot); conditions: 8 hours
T1 construct: AR-positive human prostate cancer cells (LNCaP, cell source: ATCC); host or cells: LNCaP
T1 sequence (P10275 whole entry T878A): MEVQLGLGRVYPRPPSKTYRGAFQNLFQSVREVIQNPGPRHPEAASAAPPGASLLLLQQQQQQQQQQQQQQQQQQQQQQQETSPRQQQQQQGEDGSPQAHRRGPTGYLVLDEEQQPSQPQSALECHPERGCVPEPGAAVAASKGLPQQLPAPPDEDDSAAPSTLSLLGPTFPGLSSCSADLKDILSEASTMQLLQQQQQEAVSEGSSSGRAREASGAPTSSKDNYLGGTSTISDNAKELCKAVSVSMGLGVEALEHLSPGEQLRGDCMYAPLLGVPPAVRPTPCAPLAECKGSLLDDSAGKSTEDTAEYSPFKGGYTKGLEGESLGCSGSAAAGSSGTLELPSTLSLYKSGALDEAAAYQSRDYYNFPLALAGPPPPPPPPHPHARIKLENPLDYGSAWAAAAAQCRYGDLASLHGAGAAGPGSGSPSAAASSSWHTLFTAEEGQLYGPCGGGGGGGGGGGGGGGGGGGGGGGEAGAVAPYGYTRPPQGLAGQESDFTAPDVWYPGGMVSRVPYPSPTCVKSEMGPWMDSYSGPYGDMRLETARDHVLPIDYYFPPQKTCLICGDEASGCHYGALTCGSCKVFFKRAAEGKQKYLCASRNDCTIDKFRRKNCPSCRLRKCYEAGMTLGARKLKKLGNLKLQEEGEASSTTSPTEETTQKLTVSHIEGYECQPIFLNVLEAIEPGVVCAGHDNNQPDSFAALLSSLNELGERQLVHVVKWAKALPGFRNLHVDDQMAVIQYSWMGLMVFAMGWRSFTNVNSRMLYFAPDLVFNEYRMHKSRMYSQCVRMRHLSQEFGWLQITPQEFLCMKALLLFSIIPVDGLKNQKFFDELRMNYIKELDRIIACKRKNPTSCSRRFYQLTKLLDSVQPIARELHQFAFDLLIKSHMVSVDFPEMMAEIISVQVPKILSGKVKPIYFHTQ
T1 sequence (Q96SW2 whole entry partner): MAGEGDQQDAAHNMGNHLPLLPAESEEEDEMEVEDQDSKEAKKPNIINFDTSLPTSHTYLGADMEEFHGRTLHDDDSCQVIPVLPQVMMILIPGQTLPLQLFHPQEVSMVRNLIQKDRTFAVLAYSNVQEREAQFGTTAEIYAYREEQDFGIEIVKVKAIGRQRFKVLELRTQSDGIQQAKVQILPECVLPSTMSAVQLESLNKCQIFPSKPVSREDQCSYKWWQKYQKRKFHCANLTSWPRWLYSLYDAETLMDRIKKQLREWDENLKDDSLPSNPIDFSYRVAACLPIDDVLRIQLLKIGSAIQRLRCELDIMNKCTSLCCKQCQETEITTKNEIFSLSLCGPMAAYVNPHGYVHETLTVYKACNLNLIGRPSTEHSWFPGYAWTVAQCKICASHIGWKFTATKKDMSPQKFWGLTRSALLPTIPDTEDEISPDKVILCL
Method: AR-positive human prostate cancer cells (LNCaP, cell source: ATCC) were cultured in RPMI 1640 (ATCC catalog number 30-2001) containing 10% FBS (Hyclone catalog number SH30406.05), and the cells were inoculated into a six-well microplate (Thermo catalog number 140675) at a density of 1.5 × 10^5 cells/well. After the cells were cultured overnight in a carbon dioxide incubator (ESCO), the prepared compound of the present invention and the positive control sample ARV-766 (source: energy chemical) solution of different concentrations were added at a volume of 1 µL/well to make the final concentrations of the compound and the positive control sample reach 100nM and 10nM, respectively. At the same time, the corresponding solvent control was set and cultured for 8 hours. After 8 hours of culture, the culture medium was removed, the cells were washed with PBS, and RIPA lysis buffer containing 1% Protease Inhibitor Cocktail was added. After lysis and centrifugation, the total protein extract was obtained, and the protein concentration in the extract was detected by BCA method. Protein electrophoresis was performed using SDS-PAGE, and then the protein was transferred to a PVDF (Millipore Sigma catalog number PSRP010R5) membrane at a constant voltage of 100V for 60 minutes. The PVDF membrane was placed in a 5% milk powder 1×TBST solution and blocked at room temperature for 1 hour. The primary antibody solution (Anti-Androgen receptor, Cell Signaling Technology catalog number: 5153S; 1:2000 dilution) was prepared and incubated at 4°C overnight. The primary antibody solution was discarded and the PVDF membrane was washed with 1×TBST for 5 minutes each time, three times. The secondary antibody solution (Thermo, catalog number SA5-35571; 1:7500 dilution) was prepared and incubated at room temperature for 1 hour. The secondary antibody solution was discarded and the PVDF membrane was washed with 1×TBST for 5 minutes each time, three times. A dual-color infrared laser imaging system (Licor catalog number Odyssey CLX) was used for Western membrane imaging. The Image Studio software was used to analyze the grayscale of the bands. GAPDH protein bands were also detected for each sample as an internal reference. The AR protein degradation rate of the compound and the positive control sample was calculated based on the grayscale of the protein bands. Among them, "A" means degradation rate ≥ 50%, "B" means 50%> degradation rate ≥ 20%, "C" means 20% degradation rate ≥ 10%, and "D" means degradation rate less than 10%.

[4] = tested on: MCF-7 cells; assay: MCF-7 cell proliferation inhibition (CCK-8); conditions: Homo sapiens, MCF7, 144 h, 6 days
Method: The complete culture medium required for breast cancer MCF-7 cells (source ATCC) is DMEM (gibco, Product number: 11995-065) basal medium containing 10% fetal bovine serum. MCF-7 cells were seeded in 96-well plates at a density of 800 cells/well, and different concentrations of PROTAC compounds 1-55 provided in the embodiments of the present invention and the positive control sample ARV-471 (source: Inokai) were prepared to treat cells. The cells were incubated at 37 °C and 5% CO2 in a cell culture incubator for 6 days. Cell viability was detected using a CCK-8 kit (Beyotime, Product number: C0040) according to the manufacturer's instructions. The IC50 value of each PROTAC compound for 6 days was calculated using GraphPad Prism software based on the inhibition rate. Table 7: IC50 value for the inhibition of MCF-7 cell proliferation by PROTAC compounds of the present disclosure and positive control sample

[5] = tested on: T-47D cells; assay: T-47D cell proliferation inhibition (CCK-8); conditions: Homo sapiens, T47D, 144 h, 6 days
Method: The complete culture medium required for breast ductal carcinoma T-47D cells is 1640 (ATCC, Product number: A10491-01) basal medium containing 10% fetal bovine serum. T-47D cells were seeded in 96-well plates at a density of 3,000/well, and different concentrations of PROTAC compounds 1-55 provided in the embodiments of the present invention and the positive control sample ARV-471 (source: Inokai) were prepared to treat the cells and incubated at 37°C, 5% CO2 in a cell culture incubator for 6 days. According to the manufacturer's instructions, the CCK-8 kit (Beyotime, Product number: C0040) was used to detect cell viability. The IC50 of each compound for 6 days was calculated using GraphPadPrism software based on the inhibition rate. Table 6: IC50 value for the inhibition of T-47D cell proliferation by PROTAC compounds and positive control sample

Row | pIC50 [1] | pIC50 [2] | Degradation rate of AR protein in LNCAP cells ([3]; 10 nM) | Degradation rate of AR protein in LNCAP cells ([3]; 100 nM) | pIC50 [5] | SMILES | pIC50 [4]
1 | > 10.59 | 6.26 | A (degradation rate ≥ 50%) | A (degradation rate ≥ 50%) | – | COc1cc(N2CC3(CCN(c4ccc(C(=O)N5CCC(CN6CCC7(CCc8ccc(N9CCC(=O)NC9=O)cc8O7)CC6)CC5)cc4)CC3)C[C@@H]2C)ccc1C#N [A-P-83, (S)-4-(8-(4-(4-((7-(2,4-dioxotetrahydropyrimidin-1(2H)-yl)spiro[chroman-2,4'-piperidine]-1'-yl)methyl)piperidine-1-carbonyl)phenyl)-3-methyl-2,8-diazaspiro[4.5]dec-2-yl)-2-methoxybenzonitrile] | –
2 | – | – | – | – | 8.57 | O=C1CC[C@H](N2Cc3cc(N4CCN(CC5CCN(c6ccc([C@@H]7c8ccc(O)cc8CC[C@@H]7c7ccccc7)cc6)CC5)CC4)ccc3C2=O)C(=O)N1 [ARV-471, reference compound] | 6.95
3 | – | – | – | – | – | O=C1CCC(c2ccc3c(c2)OC2(CC3)CCN(C[C@H]3CC[C@@H](OC4CCN(c5ccc([C@@H]6c7ccc(O)cc7CC[C@@H]6c6ccccc6)cc5)CC4)CC3)CC2)C(=O)N1 (stereo partly drawn) [ER-P-5, 3-(1'-(((1S,4S)-4-((1-(4-((1R,2S)-6-hydroxy-2-phenyl-1,2,3,4-tetrahydronaphthyl-1-yl)phenyl)piperidin-4-yl)oxy)cyclohexyl)methyl)spiro[chroman-2,4'-piperidine]-7-yl)piperidine-2,6-dione] | 6.06
4 | – | – | – | – | 6.44 | O=C1CCN(c2ccc3c(c2)CC2(CCN(C[C@H]4CC[C@@H](OC5CCN(c6ccc([C@@H]7c8ccc(O)cc8CC[C@@H]7c7ccccc7)cc6)CC5)CC4)CC2)CO3)C(=O)N1 [ER-P-6, 1-(1'-(((1S,4S)-4-((1-(4-((1R,2S)-6-hydroxy-2-phenyl-1,2,3,4-tetrahydronaphthalen-1-yl)phenyl)piperidin-4-yl)oxy)cyclohexyl)methyl)spiro[benzo-dihydro-3,4'-piperidin]-6-yl)dihydropyrimidine-2,4(1H,3H)-dione] | 6.07

Row | SMILES | pIC50 [1] | pIC50 [2] | Degradation rate of AR protein in LNCAP cells ([3]; 10 nM) | Degradation rate of AR protein in LNCAP cells ([3]; 100 nM) | pIC50 [5] | pIC50 [4]
5 | O=C1CCN(c2ccc3c(c2)OCC32CCN(C[C@H]3CC[C@@H](OC4CCN(c5ccc([C@@H]6c7ccc(O)cc7CC[C@@H]6c6ccccc6)cc5)CC4)CC3)CC2)C(=O)N1 [ER-P-4, 1-(1'-(((1S,4S)-4-((1-(4-((1R,2S)-6-hydroxy-2-phenyl-1,2,3,4-tetrahydronaphthalen-1-yl)phenyl)piperidin-4-yl)oxy)cyclohexyl)methyl)-2H-spiro [benzofuran-3,4'-piperidine]-6-yl)dihydropyrimidine-2,4(1H,3H)-dione] | – | – | – | – | 7.28 | 6.03
